{"source": "patent US10919941B2", "about": "“Functional lipid constructs” (KODE BIOTECH LIMITED, priority 2007, dated 2021)", "key": {"red blood cells": {"tested_on": "red blood cells", "test": "Avidin-Alexafluor fluorescence of RBCs modified with biotin-lipid construct", "format": "cell-based", "set-up": "key: 0 (no fluorescence observed); 4 (maximum fluorescence observed)", "conditions": "for fluorescence score (Avidin-AF), RBCs: Day 0", "procedure": "A stock solution of Avidin-Alexafluor (Avidin-AF) was prepared in sterile phosphate buffered saline (PBS) at a concentration of 2 mg/mL. A stock solution of biotinylated gangliocide (BioG) was prepared in sterile PBS at a concentration of 5 mg/mL.\nIncubations were performed in a plastic ependorf tube of nominal volume 1.5 mL for 2 hours at 37° C. in a water bath. O group RBCs were incubated with a solution of BioG at a concentration of 0.33 mg/mL as a positive control.\nIncubated RBCs were washed 3 times with PBS in a mini centrifuge. Fluorescent labeling of the washed, modified RBCs was performed by adding 10 μL of a solution of Avidin-AF at a concentration of 0.1 mg/mL. The RBCs were then incubated in the dark for 1 hour at 37° C. in a water bath and washed 3 times with PBS.\n85% solution of the washed, fluorescent labeled RBCs were viewed on a slide with cover slip under a fluorescent microscope at 488 nm and photographic exposure of 1.903 (FIG. 6). The intensity of the fluorescent signal was recorded using a scoring system of 0 (no fluorescence observed) to 4 (maximum fluorescence observed).\nRetention of the construct by the RBCs was assessed by incubation with Avidin-AF as before."}, "murine embryos": {"tested_on": "murine embryos", "test": "Avidin-Alexafluor fluorescence of murine embryos modified with biotin-lipid construct", "format": "cell-based", "procedure": "Murine embryos (morula/early blastocyst stage, 3.5 day) were incubated in 50 microlitre microdrops in Blastassist™ culture media.\nThe zona pellucida of the embryos was removed by treatment with 0.5% pronase (4 minute incubation) and washing 3 times in embryo handling media prior to introduction into the microdrops. Each microdrop was equilibrated 5% CO2 at 37° C. overnight prior to introduction of the embryos.\nMicrodrops containing embryos and BioG were incubated for 40 minutes in 5% CO2 at 37° C.\nFollowing incubation each group of embryos was washed 3 times in handling media and transferred to 50 microlitre microdrops containing 2 mg/ml, Avidin-AF microdrops for fluorescent labelling. The microdrops containing transferred embryos were incubated at 37° C. for 30 minutes in the dark.\nEach group of embryos was then washed 3 times in handling media and mounted on a glass microscope slide for viewing. Embryos were viewed under a fluorescent microscope at 488 nm. The intensity of the fluorescence was recorded using a scoring system of 0 (no fluorescence) to 4 (maximum fluorescence)."}, "spermatozoa": {"tested_on": "spermatozoa", "procedure": "Spermatozoa were washed and isolated by layering 1.1 mL of fresh semen over a gradient of SpermGrad 125 (Vitrolife 10099; 2 mL of 40% solution over 2 mL of 80% solution in a 15 mL round bottom tube) and centrifuging at 500×g for 20 min.\nThe bottom layer of the gradient (c. 0.7 mL was transferred to 4 mL round bottom tubes and c. 2 mL flushing (handling) media (Medicult 10840125A) added. The tube was centrifuged at 300×g for 10 min and the spermatozoa washed two more times (mixing by tube inversion).\nSamples of washed spermatozoa were incubated overnight at 37° C. in a 5% CO2 atmosphere.\nOpen tubes were incubated at 37° C. in a 5% CO2 atmosphere prior to addition of c. 70 μL spermatozoa (c. 25×10^6/mL) to each tube and incubation for 120 min (A), 60 min (B), 30 min (C), 10 min […] and 120 min (E).\nFollowing incubation a couple of drops of flushing media were added and the tubes centrifuged at 300×g for 5 min. The spermatozoa were washed two more times with flushing media and before being re-suspended in culture media to a final volume of 100 μL.\nStreptavidin beads at a concentration of c. 6.25×10^6/100 μL were diluted 35 times in BSA plus flushing media to provide a ratio of 0.1 beads/spermatozoa when mixed in equal volume with a diluted suspension of the modified spermatozoa.\nA volume of 5 μL of a diluted suspension of the modified spermatozoa was mixed on a slide with 5 μL of a diluted suspension of streptavidin beads and covered with a coverslip.\nThe mixture was observed under a microscope at 400× magnification.\nThe assessment of the attachment of streptavidin beads to modified spermatozoa is recorded in Table 27."}, "RL95-2 monolayers [1]": {"tested_on": "RL95-2 monolayers", "procedure": "The modification of monolayers of the cell line RL95-2 (established from a human endometrial adenocarcinoma (ATCC HTB CRL 1671)) in serum-free and serum-containing media was evaluated.\nD-MEM/F12 (Gibco 11320-033, Invitrogen NZ) containing 1% penicillin/streptomycin (Gibco 15140-122, Invitrogen NZ) was used as a serum-free medium. D-MEM/F12 10% FBS (Gibco 10091-130, Invitrogen NZ) containing 1% penicillin/streptomycin and […] insulin (Gibco 12585-014, Invitrogen NZ) was used as a serum-containing medium.\nA suspension of the cell line RL95-2 was diluted in pre-warmed serum-containing media to the required concentration e.g. 4×10^5 cells/mL. A 25 μL volume of the suspension was used to seed the required wells in a Terasaki tray so that each treatment was performed in duplicate. The plates were incubated overnight in a 5% CO2, 37° C. incubator until the monolayer was approximately 60% confluent.\nTrays were incubated at 37° C., 5% CO2 for 120 min.\nThe cells were then washed and a 12 μl volume of a 0.1 mg/mL solution of Avidin Alexa Fluor® 488 added. The cells were then incubated at room temperature for a further 30 minutes in the dark.\nThe monolayers were finally washed 3 times with PBS, the trays inverted and photographed using an Olympus BX51 fluorescent microscope at 200× magnification, exposure time 475 ms (FIG. 12)."}, "A group red blood cells": {"tested_on": "A group red blood cells", "conditions": "construct 1 mg/mL, 37° C. 2 hours; wells washed 3× with PBS", "method": "A volume of 60 μL washed A group red blood cells (RBCs) was modified by incubation with 20 μL of the dilution of the construct at 37° C. for 2 hours.\nThe modified RBCs were washed twice in PBS and once in Celpresol™ as described above. A 2% cell suspension of washed cells (modified or control) was prepared in Celpresol™ and cell concentration (150×10^6/mL) determined using a haemocytometer. Similarly the concentration of a suspension streptavidin beads (134×10^6/mL) was determined.\nA volume of 50 μL of a suspension of RBCs was added to provide a bead to RBC ratio of c. 1:1 and incubated at room temperature for 1 hour to allow RBCs to settle.\nThe wells were washed 3× with PBS, aspirating the washing solution with a pipette."}, "group 0 RBCs": {"tested_on": "group 0 RBCs", "conditions": "construct 0.5 mg/ml", "method": "Unmodified group A RBCs were used as a second population of cells.\nBoth populations of cells were incubated for 37° C. for 2 hrs in a water bath and then washed 2× in PBS and 1× in Celpresol using an Immufuge II (low, 1 min). The concentration of cells in each suspension was made up to 2% by adding 1.5 mL.\nThe suspensions of RBCs were mixed with avidinylated magnetic Dynabeads at an approximate ratio of RBC:bead of 1 and incubated for 10 min at room temperature on a gyrator. Samples of the first and second populations of RBCs were then mixed in equal volumes (35 μl each) in an ependorf tube for two minutes.\nThe contents of the ependorf were transferred to the well of a 96-well plate and a magnet was applied to the underside of the well for 1 minute. The supernatant was carefully removed with the magnet applied and without disruption of the beads. The blood grouping of the cells of the supernatants were then assessed by applying 30 μl of supernatant and 30 μl anti-A antibody to a Dynamed™ gel card. Cards were spun for 10 min in a centrifuge."}, "RL95-2 monolayers [2]": {"tested_on": "RL95-2 monolayers", "remark": "listed apart in the source"}, "RL95-2 cells": {"tested_on": "RL95-2 cells", "conditions": "for Mean Fluorescence: T = 24 hr, Serum-containing"}}, "note": "Read-outs that look alike come from different tables or passages of the source.", "data": [{"substance": "Biotin-CMG(2)-Ad-DOPE", "values": [{"measurement": "fluorescence score (Avidin-AF), RBCs", "setting": "red blood cells; dilution 0.001 mg/ml", "result": 0}, {"measurement": "fluorescence score (Avidin-AF), RBCs", "setting": "red blood cells; dilution 0.01 mg/ml", "result": 1}, {"measurement": "fluorescence score (Avidin-AF), RBCs", "setting": "red blood cells; dilution 0.1 mg/ml", "result": 2}, {"measurement": "fluorescence score (Avidin-AF), RBCs", "setting": "red blood cells; dilution 1 mg/ml", "result": 4}, {"measurement": "fluorescence score (Avidin-AF), RBCs, retention", "setting": "red blood cells; dilution 1 mg/ml, Day 14 of storage", "result": 4}, {"measurement": "fluorescence score (Avidin-AF), murine embryos", "setting": "murine embryos; 0.1 mg/mL, n = 21", "result": 2}, {"measurement": "fluorescence score (Avidin-AF), murine embryos", "setting": "murine embryos; 1 mg/mL, n = 19", "result": 1}, {"measurement": "fluorescence score (Avidin-AF), murine embryos", "setting": "murine embryos; 2 mg/mL, n = 19", "result": 1}, {"measurement": "Number of beads attached to spermatozoa", "setting": "spermatozoa; treatment A, incubation time 120 min, 30 min, with cross-linking", "result": "10-15 (with"}, {"measurement": "Number of beads attached to spermatozoa", "setting": "spermatozoa; treatment A, incubation time 120 min, Immediate", "result": "10-12"}, {"measurement": "Number of beads attached to spermatozoa", "setting": "spermatozoa; treatment B, incubation time 460 min, 30 min", "result": 8}, {"measurement": "Number of beads attached to spermatozoa", "setting": "spermatozoa; treatment C, incubation time 30 min, 30 min", "result": 3}, {"measurement": "Number of beads attached to spermatozoa", "setting": "spermatozoa; treatment C, incubation time 30 min, Immediate", "result": "1-3"}, {"measurement": "Number of beads attached to spermatozoa", "setting": "spermatozoa; treatment D, incubation time 10 min, 30 min", "result": 1}, {"measurement": "Number of beads attached to spermatozoa", "setting": "spermatozoa; treatment D, incubation time 10 min, Immediate", "result": 1}, {"measurement": "Mean Fluorescence", "setting": "RL95-2 monolayers [1]; 100 μg/mL, insertion time 30", "result": 3}, {"measurement": "fluorescence of RL95-2 cell membrane, serum-free media", "setting": "RL95-2 monolayers [1]; construct 20, 100 and 500 μg/mL", "result": "homogenous intense fluorescent signal"}, {"measurement": "fluorescence of RL95-2 cell membrane, serum-containing media", "setting": "RL95-2 monolayers [1]; same concentrations (20, 100 and 500 μg/mL)", "result": "weakened fluorescence"}, {"measurement": "intensity of fluorescence versus insertion time", "setting": "RL95-2 monolayers [1]; serum-free media", "result": "increased with increasing insertion time"}, {"measurement": "retention of modified RBCs by streptavidin beads on magnet after washing", "setting": "A group red blood cells", "result": "retained"}, {"measurement": "retention of modified group 0 RBCs by the magnet from mixture with unmodified group A RBCs", "setting": "group 0 RBCs", "result": "Retention of the 0 group RBCs by the magnet was demonstrated"}, {"measurement": "internalisation of Avidin Alexa Fluor 488 fluorescence", "setting": "RL95-2 monolayers [2]; incubated at 4° C.", "result": "No internalization was observed"}, {"measurement": "internalisation of Avidin Alexa Fluor 488 fluorescence", "setting": "RL95-2 monolayers [2]; incubated at 37° C.", "result": "fluorescence starts to internalize within 4 hr"}, {"measurement": "Mean Fluorescence", "setting": "RL95-2 cells; 20 μg/mL", "result": 0}, {"measurement": "Mean Fluorescence", "setting": "RL95-2 cells; 100 μg/mL", "result": 0}, {"measurement": "fluorescence 24 hr post-insertion, serum-free media", "setting": "RL95-2 cells; RL95-2 cells, reduced from T=0", "result": "Fluorescence was detected"}]}]}
